Measured values published in patent US20100035297A1, “METHODS AND COMPOSITIONS FOR VASCULOGENIC POTENTIAL DETERMINATION” (INDIANA UNIVERSITY RESEARCH AND TECHNOLOGY CORPORATION, priority 2008, published 2010).

How the values were obtained:
Type in all cases: cell-based, human
[1] = tested on: vascular network formation by EC on ASC monolayer; assay: Vascular network formation (VNF) in EC-ASC co-culture; details: 6 days
Method: Medium with the same supplements were exchange at day 3. At day 6, wells with the co-cultures were fixed with methanol, stained for human CD31 antigen; 5-9 pictures/well at 4× were taken under fluorescent microscope and were analyzed for total tube length and branch points.
Co-culture of EC and ASC: ASCs were plated on culture plastic at a density of 60×10^3 cells/cm^2 in EBM-2/5% FBS media. In most experiments, ASCs were allowed to attach to the plates for three hours and then ECs from the indicated sources were plated on the top of ASC monolayer at densities ranging from 625 to 10,000 cells/cm^2. Cells were cultured in EBM-2/5% FBS for six days with media change at day 3. In a separate set of experiments, ASCs at 60×10^3 cells/cm^2 and CBD-ECs at 5×10^3 cells/cm^2 were premixed in EBM-2/5% FBS prior to plating.
In experiments assessing the role of various factors on EC-ASC interactions, co-cultures were incubated for 6 days in EBM-2/5% FBS media supplemented with: (1) neutralizing IgGs to: VEGF (RnD Systems, 2 μg/ml), HGF (RnD Systems, 2 μg/ml) or corresponding control mouse and goat IgGs (RnD Systems); (2) 10 μM GM6001 (Millipore, Billerica, Mass.), an inhibitor of MMP activity with a wide range of activity; (3) 50 μM AG1296 (Alexis, San Diego, Calif.), an inhibitor of PDGF receptor β activity; (4) and DMSO, which was used to dilute GM6001 and AG1296, as a negative control. Test cultures were exposed to the varying media conditions for six days.
(§1) Co-culture of ECs on ASC, NHDF and smooth muscle cell monolayers: Either ASCs, NHDFs, CASMCs, or AoSMCs were plated at a density of 60×10^3 cells/cm^2 in EBM-2/5% FBS media, three hours prior to overlaying them with 5×10^3 cells/cm^2 of CBD-ECs as previously described. The mixed cultures were incubated for six days with a routine media change at day 3. In experiments evaluating the effect of ASC conditioned media (ASC-CM) or added growth factors on vascular network formation, cells were cultured in EBM-2/5% FBS media that was either premixed with ASC-CM at a 1:1 ratio or supplemented with VEGF or HGF (10 ng/ml) as single growth factor controls. To generate ASC-CM, ASCs were grown to confluence in EGM-2mv in T75 flasks, followed by media replacement with EBM-2/5% FBS. After one day, 10 ml fresh EBM-2/5% FBS media was applied and removed after 72 hours conditioning. ASC-CM was collected, centrifuged at 300 g for five minutes, and supernatants frozen at 80° C. Cell number at the time of media collection was determined using hemocytometer.

ASCs = assay: hASC mitogenic response to individual growth factors; details: factor added to basal medium, 10 pg to 10 ng, 4 days
Method: Evaluation of hASC Mitogenic Response to Individual Growth Factors: Freshly isolated ASCs were adhered on cell culture plastic for 2 days before harvesting attached cells with 0.05% trypsin/EDTA. Cells were seeded at 3×10^3 cells/cm^2 in 12-well plates and allowed to attach overnight in EBM-2/5% FBS medium, which was then replaced with EBM-2/5% FBS alone (control) or EBM-2/5% FBS supplemented with basic fibroblast growth factor (bFGF), epidermal growth factor (EGF), or platelet-derived growth factor (PDGF)-BB individually at final concentrations of 10 pg, 100 pg, 1 ng, or 10 ng each or the mixture of all of these, each at the specified concentration. Cells were cultured for 4 days, with a medium change after 48 hours, and then detached using 0.05% trypsin/EDTA, and viable cells were counted using a hemacytometer and trypan blue. Proliferation data are presented as the ratio of cells per well supplemented with growth factor to cells per well in control media.

EC+fibroblast co-culture = assay: VNF by ECs co-cultured on fibroblast (NHDF) monolayer; details: growth factor 10 ng/ml, 6 days; control 0.54±0.1
Method: as §1

EC+CASMC co-culture = assay: VNF by ECs co-cultured on CASMC monolayer; details: growth factor 10 ng/ml, 6 days; control 0.37±0.13
Method: as §1

COc1cc2ncc(-c3ccccc3)nc2cc1OC [AG1296]
total tube length ([1]; 50 μM, DMSO control 5.29±0.31): 1.07±0.14 mm/mm^2
degree of network branching ([1]; 50 μM, DMSO control 5.88±0.67): 0.26±0.06 branches/mm^2

CNC(=O)[C@H](Cc1c[nH]c2ccccc12)NC(=O)[C@@H](CC(=O)NO)CC(C)C [GM6001]
total tubes length ([1]; 10 μM, DMSO control 4.24±0.31): 2.59±0.05 mm/mm^2
degree of network branching ([1]; 10 μM, DMSO control 5.86±0.79): 2.45±0.17 per mm^2

EGF: epidermal growth factor (NSDSECPLSHDGYCLHDGVCMYIEALDKYACNCVVGYIGERCQYRDLKWWELR; UniProt P01133 971-1023, looked up)
effect on ASC proliferation (ASCs): strong mitogenic effects

HGF: hepatocyte growth factor, single growth factor supplement
total tube length (EC+fibroblast co-culture): 1.0±0.02 mm/mm^2
total tube length (EC+CASMC co-culture): 0.74±0.21 mm/mm^2

VEGF
total tube length (EC+fibroblast co-culture): 3.2±0.4 mm/mm^2
total tube length (EC+CASMC co-culture): 0.9±0.18 mm/mm^2
increase of total tube length ([1]; EC-ASC co-culture, growth factor 10 ng/ml, vs control media): 76%

bFGF: basic fibroblast growth factor
effect on ASC proliferation (ASCs): strong mitogenic effects
